Where two headings read alike, the source gives them in different places.
Assays:
ARPE-19 cells = assay: Oxidant cytotoxicity (MTT viability, median effect analysis) and protection by 24 h sulforaphane pretreatment; format: cell-based, human; conditions: ARPE-19; for Dm of menadione: Example 3; for Dm of menadione / Dm (median effect concentration) of menadione / m (slope of median effect plot) for menadione: menadione 2 h; for Dm (median effect concentration) of tert-butyl hydroperoxide / m (slope of median effect plot) for tert-butyl hydroperoxide: tert-butyl hydroperoxide 16 h
Experimental: (§1) All experiments were performed in 96-well microliter plates. ARPE-19 and HaCaT cells were seeded at 10,000 cells per well and grown for 24 h before addition of sulforaphane, whereas L1210 cells (5,000 cells/well) were not incubated before sulforaphane treatment. Solutions of sulforaphane (5 mM) in dimethyl sulfoxide were diluted with the cognate culture medium to provide final inducer concentrations of 0.16-5.0 μM. The final DMSO concentrations were 0.1% by volume.
Tert-Butyl hydroperoxide (1 M) and 4-hydroxynonenal (25 mM) were dissolved in DMSO and diluted 1000-fold with serum-free medium before addition of serial dilutions to the microtiter plate wells. The final concentrations of DMSO were therefore less than 0.1% (by vol.). Menadione sodium bisulfite (0.5 M) and SIN-1 (0.5 M) were dissolved and added in PBS. ARPE-19 cells were exposed to menadione for 2 h and to tert-butyl hydroperoxide for 16 h, washed with PBS, and cell viability was determined by the MIT test. ARPE-19 cells were exposed to peroxynitrite for 2 h and 4-hydroxynonenal for 4 h, and the cells were then incubated in serum-free media for 22 and 20 h, respectively, washed with PBS, and cell viability was determined. The additional incubation periods were required for peroxynitrite and 4-hydroxynonenal to evoke maximal cytotoxicity.
(§2) Cell viability was determined by spectroscopic measurement of the reduction of MTT (Carmichael, J., DeGraff, W. G., Gazdar, A. F., Minna, J. D. & Mitchell, J. B. (1987) Cancer Res. 47, 936-942). The culture media were discarded after the designated incubation periods, the cells were washed three times with PBS by use of a microtiter plate washer (Ultrawash Plus, Dynex Technologies, Chantilly, Va.). Each well then received 150 μl of an MTT solution (0.5 mg/ml) in serum-free medium. The plates were incubated for 2 h at 37° C., the MTT solution was discarded, 100 μl of DMSO were added to each well, and the plates were shaken at 200 rpm on an orbital shaker for 5 min. The absorbances of the wells were determined at 555 nm with a microtiter plate reader (Spectra Max Plus, Molecular Devices, Sunnyvale, Calif.). The absorbance of reduced MIT was then compared at each inducer and oxidant concentration to that of untreated control cells that received only the vehicle in which sulforaphane (DMSO) and menadione (DMSO or PBS) were dissolved. In each experiment three identical 96-well plates were used and the means of the absorbance values, the standard deviations of these means, and their coefficients of variation were calculated.
(§3) Dose-effect analyses were performed according to the Median Effect Equation, by use of a computer program (Chou, T. C. & Hayball, M. (1996) CalcuSyn for Windows 3.1 and 95: multiple dose effect analyzer and manual for IBM-PC, Biosoft, Cambridge, U.K). The equation: fa/fu=[D/Dm]^m, where fa is the fraction of cells affected by the oxidant, fu is the fraction unaffected (i.e., 1-fa), D is the dose of oxidant required to produce the effect fa, Dm is the concentration of oxidant required to produce a 50% effect, i.e., when fa=fu, and the slope m is a measure of the sigmoidicity of the dose-response curve, and is therefore a measure of cooperativity. The results are analyzed by plotting log(fa/fu) with respect to log D of the oxidant. The computer program provides the slope (m) of the curves, and the goodness of fit (r^2) to linearity.

L1210 cells = assay: Menadione cytotoxicity (MTT, median effect analysis) and protection by sulforaphane; format: cell-based, mouse; conditions: menadione 2 h
Experimental: Mouse L1210 leukemia cells, a gift from Dr. Joseph G. Cory, East Carolina State University, Greenville, N.C., were grown in RPMI 1640 medium supplemented with 10% horse serum. All cultures were incubated in a humidified atmosphere of 5% CO2 at 37° C. Media and sera were obtained from Life Technologies (Rockville, Md.).
as §1, §2, §3

[1] = after sulforaphane 0.63 μM 24 h
[2] = after sulforaphane 1.25 μM 24 h
[3] = after sulforaphane 2.50 μM 24 h
[4] = after sulforaphane 5.00 μM 24 h
[5] = after sulforaphane 0.16 μM 24 h
[6] = after sulforaphane 0.31 μM 24 h

C[S+]([O-])CCCCN=C=S (stereo not drawn) [Sulforaphane]
m (slope of median effect plot) for 4-hydroxynonenal (ARPE-19 cells; 4-hydroxynonenal 4 h, after sulforaphane 0.63 μM 24 h): 2.51
EC50 (ARPE-19 cells; 4-hydroxynonenal 4 h, after sulforaphane 0.63 μM 24 h, read-out: Dm (median effect concentration) of 4-hydroxynonenal): 0.0141 mM
m (slope of median effect plot) for 4-hydroxynonenal (ARPE-19 cells; 4-hydroxynonenal 4 h, after sulforaphane 1.25 μM 24 h): 2.78
EC50 (ARPE-19 cells; 4-hydroxynonenal 4 h, after sulforaphane 1.25 μM 24 h, read-out: Dm (median effect concentration) of 4-hydroxynonenal): 0.0258 mM
m (slope of median effect plot) for 4-hydroxynonenal (ARPE-19 cells; 4-hydroxynonenal 4 h, after sulforaphane 2.50 μM 24 h): 2.51
EC50 (ARPE-19 cells; 4-hydroxynonenal 4 h, after sulforaphane 2.50 μM 24 h, read-out: Dm (median effect concentration) of 4-hydroxynonenal): 0.0268 mM
Dm of menadione (ARPE-19 cells; after sulforaphane 0.625 μM 24 h): 69.2 µM
Dm of menadione (ARPE-19 cells; after sulforaphane 2.5 μM 24 h): 94.5 µM
degree of protection against different oxidants (ARPE-19 cells; comparable concentrations of sulforaphane): 2- to 3 fold
Dm (median effect concentration) of menadione (ARPE-19 cells; [1]): 98.6 µM
m (slope of median effect plot) for menadione (ARPE-19 cells; [1]): 3.69
Dm (median effect concentration) of menadione (ARPE-19 cells; [2]): 110 µM
m (slope of median effect plot) for menadione (ARPE-19 cells; [2]): 3.49
Dm (median effect concentration) of menadione (ARPE-19 cells; after sulforaphane 1.25 μM 24 h, listed as sulforaphane): 109.9 µM
Dm (median effect concentration) of menadione (ARPE-19 cells; [3]): 123 µM
m (slope of median effect plot) for menadione (ARPE-19 cells; [3]): 3.58
Dm (median effect concentration) of menadione (ARPE-19 cells; after sulforaphane 2.50 μM 24 h, listed as sulforaphane): 122.9 µM
Dm (median effect concentration) of menadione (ARPE-19 cells; [4]): 134 µM
m (slope of median effect plot) for menadione (ARPE-19 cells; [4]): 3.12
Dm (median effect concentration) of menadione (ARPE-19 cells; after sulforaphane 5.00 μM 24 h, listed as sulforaphane): 134.2 µM
m (slope of median effect plot) for peroxynitrite (ARPE-19 cells; peroxynitrite (from SIN-1) 2 h, after sulforaphane 0.63 μM 24 h): 6.30
EC50 (ARPE-19 cells; peroxynitrite (from SIN-1) 2 h, after sulforaphane 0.63 μM 24 h, read-out: Dm (median effect concentration) of peroxynitrite): 2.78 mM
m (slope of median effect plot) for peroxynitrite (ARPE-19 cells; peroxynitrite (from SIN-1) 2 h, after sulforaphane 1.25 μM 24 h): 6.19
EC50 (ARPE-19 cells; peroxynitrite (from SIN-1) 2 h, after sulforaphane 1.25 μM 24 h, read-out: Dm (median effect concentration) of peroxynitrite): 2.82 mM
m (slope of median effect plot) for peroxynitrite (ARPE-19 cells; peroxynitrite (from SIN-1) 2 h, after sulforaphane 2.50 μM 24 h): 6.62
EC50 (ARPE-19 cells; peroxynitrite (from SIN-1) 2 h, after sulforaphane 2.50 μM 24 h, read-out: Dm (median effect concentration) of peroxynitrite): 2.89 mM
time for which protection against menadione toxicity is maintained or exceeded after 24-h induction (ARPE-19 cells; sulforaphane 0.625 and 2.5 μM 24 h, then serum-free culture): at least 3 days
Dm (median effect concentration) of tert-butyl hydroperoxide (ARPE-19 cells; [1]): 140 µM
m (slope of median effect plot) for tert-butyl hydroperoxide (ARPE-19 cells; [1]): 2.17
Dm (median effect concentration) of tert-butyl hydroperoxide (ARPE-19 cells; [2]): 163 µM
m (slope of median effect plot) for tert-butyl hydroperoxide (ARPE-19 cells; [2]): 1.79
Dm (median effect concentration) of tert-butyl hydroperoxide (ARPE-19 cells; [3]): 165 µM
m (slope of median effect plot) for tert-butyl hydroperoxide (ARPE-19 cells; [3]): 1.26
Dm (median effect concentration) of menadione (L1210 cells; [5]): 19.6 µM
m (slope of median effect plot) for menadione (L1210 cells; [5]): 0.864
Dm (median effect concentration) of menadione (L1210 cells; [6]): 26.5 µM
m (slope of median effect plot) for menadione (L1210 cells; [6]): 1.00
Dm (median effect concentration) of menadione (L1210 cells; [1]): 36.2 µM
m (slope of median effect plot) for menadione (L1210 cells; [1]): 1.17

— patent publication US8709406B2, “Prevention and treatment of oxidative stress disorders by gluthathione and phase II detoxification enzymes” (Brassica Foundation for ChemoProtection Research, priority 2001, dated 2014)
